Measured values from patent US20200230068A1, “COMPOSITIONS AND METHODS OF DELIVERY OF PHARMACOLOGICAL AGENTS” (NAL PHARMACEUTICAL GROUP LIMITED, priority 2017, published 2020).

Key:
in vitro = details: Chinese hamster; for cytotoxicity at 20 minutes, 0.01 µM: Cytotoxicity %
Experimental: Conjugated Complex has been tested in CHO cells expressing human recombinant sst2a. Cell viability was measured using the CellTiter-Glo® Luminescent Cell Viability Assay (Promega) that determines the number of viable cells in culture, based on quantitation of the ATP present that is an indicator of metabolically active cells.
After dispensing test compounds to the wells, cells in the incubation buffer were added to the wells and incubated for 20 minutes. At the end of incubation, CellTiter-Glo was added to each well to measure luminescence.

[1] = Stability in rat plasma in vitro; type: in vitro ADME
Experimental: SST-Albumin fusion proteins may have a longer serum half-life and/or more stabilized activity in solution or in a pharmaceutical composition in vitro and/or in vivo compared to the corresponding unfused SST molecules. In rat plasma, for example, more than 90% of SST fusion protein was detected until 40 minutes of incubation, and more than 70% of SST fusion proteins remained up to at least 180 min. Under the same conditions, less than about 50% of free SST remained after 40 minute incubation, and no free SST was detected beyond 120 minutes. […] Thus, it would take about 72 hours for the concentration of SST fusion protein to reach zero concentration in plasma.
The stability of free SST and SST fusion protein was compared in in vitro rat plasma.

[2] = target: sst2a receptor expressed on CHO-K1 cells (UniProt P30874); assay: cell-based or functional assay
[3] = cited from earlier work

UniProt P30874, sequence (P30874 whole entry): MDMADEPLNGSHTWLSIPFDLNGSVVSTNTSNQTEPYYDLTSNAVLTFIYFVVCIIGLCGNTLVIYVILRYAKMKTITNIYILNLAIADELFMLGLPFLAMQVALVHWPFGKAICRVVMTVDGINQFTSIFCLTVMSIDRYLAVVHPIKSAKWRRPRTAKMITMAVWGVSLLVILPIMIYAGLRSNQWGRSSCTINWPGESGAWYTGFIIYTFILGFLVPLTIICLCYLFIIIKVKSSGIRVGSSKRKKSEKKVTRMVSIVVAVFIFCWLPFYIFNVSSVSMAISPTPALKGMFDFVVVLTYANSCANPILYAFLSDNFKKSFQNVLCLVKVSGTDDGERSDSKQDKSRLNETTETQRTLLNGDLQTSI

In the case of `C[C@@H]1CC[C@@]2(OC1)O[C@H]1[C@@H](O)[C@H]3[C@@H]4CC[C@H]5C[C@@H](O[C@@H]6O[C@H](CO)[C@H](O[C@@H]7O[C@H](CO)[C@@H](O)[C@H](O[C@@H]8OC[C@@H](O)[C@H](O)[C@H]8O)[C@H]7O[C@@H]7O[C@H](CO)[C@H](O)[C@H](O[C@@H]8O[C@H](CO)[C@@H](O)[C@H](O)[C@H]8O)[C@H]7O)[C@H](O)[C@H]6O)[C@H](O)C[C@]5(C)[C@H]4CC[C@]3(C)[C@H]1[C@@H]2C` [Digitonin], the cytotoxicity at 20 min, 20 mg/ml (in vitro) is reported as 100%.

Molecule `C[C@@H](O)[C@@H]1NC(=O)[C@H](CCCCN)NC(=O)[C@@H](Cc2c[nH]c3ccccc23)NC(=O)[C@H](Cc2ccccc2)NC(=O)[C@@H](NC(=O)[C@H](N)Cc2ccccc2)CSSC[C@@H](C(=O)N[C@H](CO)[C@@H](C)O)NC1=O` [Octreotide] has a cytotoxicity at 20 minutes, 0.01 µM (in vitro; Test 2, 10 nM) of 8% and a cytotoxicity at 20 minutes, 0.01 µM (in vitro; test 1, 10 nM) of -4%.

For `C[C@H](N)C(=O)NCC(=O)N[C@H]1CSSC[C@@H](C(=O)O)NC(=O)[C@H](CO)NC(=O)[C@H]([C@@H](C)O)NC(=O)[C@H](Cc2ccccc2)NC(=O)[C@H]([C@@H](C)O)NC(=O)[C@H](CCCCN)NC(=O)[C@H](Cc2c[nH]c3ccccc23)NC(=O)[C@H](Cc2ccccc2)NC(=O)[C@H](Cc2ccccc2)NC(=O)[C@H](CC(N)=O)NC(=O)[C@H](CCCCN)NC1=O` [free SST, somatostatin], the “time up to which detected in rat plasma (not detected beyond)” value ([1]; rat plasma incubation) was ≤ 120 min and the remaining at 40 min ([1]; rat plasma, 40 minutes of incubation, read-out: fraction detected/remaining in rat plasma) was < 50%.

Octreotide (peptide) showed an EC50 (adenylyl cyclase assay, CHO-K1 cells expressing sst2a receptor) [2] of 0.039 nM.

For insulin-like growth factor-I [IGF-1], the half-life [3] is listed as 10 to 20 min.
